Consider three compounds from patent publication US12721836B2, “Alpha-methyl-L-tryptophan as an orally active drug for treating or preventing metabolic conditions” (Texas Tech University System, priority 2021, dated 2026).

Series [1] is described as follows: Body weight in wild type male mice on normal or high-fat diet. It is filed as in vivo. The source says:
(§1) C57B16 mice and oblob (leptin-deficient) mice were from Jackson Laboratories (Bar Harbor, ME). Slc6a14-null mice (Slc6a14^y/− males and Slc6a14^−/− females) on C57BU/6 background were generated in Applicant's lab and have been used to assess the role of this transporter in breast cancer and colon cancer. Mice had free access to water and diet ad libitum. Age- and gender-matched mice were used in control groups (no treatment). Mice were fed a normal diet (ND) (50 IF/6F 5V5R, Labdiet, St. Louis, MO) or a high-fat diet (HFD; 55% calorie from fat) (TD93075; Teklad diets, Madison, WI). The protocol was approved by the Institutional Animal Care and Use Committee of the Texas Tech University Health Sciences Center, Lubbock, TX, USA (IACUC approval number: 15002 for breeding protocol and 18005 for experimental protocol).
Administration of α-methyltryptophan to wild type mice on a high-fat diet would make the mice gain more weight as we found in Slc6a14-null male mice. The results turned out to be quite the opposite. When exposed to the drug for 1 week (2 mg/ml in drinking water; DL-enantiomeric mixture, α-MT), untreated wild type male mice on a high-fat diet gained weight whereas mice exposed to the drug lost weight (FIG. 1B). Since the deletion of Slc6a14 increased the weight gain whereas administration of α-MT to wild type mice decreased the weight gain, the effect of the drug on the body weight has little to do with its ability to block the transporter.
Next, Applicant examined the effect of α-MLT on the body weight in WT C57BL/6 male mice on a normal diet or a high-fat diet (55% calories from fat). The drug was given in drinking water (1 mg/ml). Both with the normal diet and the high-fat diet, mice gained weight when not treated with α-MLT (FIGS. 2A-B). […] This weight-reducing effect was evident with both diets.
(§2) When the drug was withdrawn, mice began to gain weight (FIG. 2B). At 4-weeks of drug exposure, circulating levels of glucose and leptin were measured. Blood glucose was higher in control (i.e., untreated) mice on the high-fat diet than in those on the normal diet (FIGS. 2C-2D). The same was true with leptin levels, which correspond to fat content (FIGS. 2C-2D).

Series [2] can be described thus: Body weight in Slc6a14-null male mice on high-fat diet (D- vs L-isomer). It is filed as in vivo. The settings on record: Slc6a14-null male mice on HFD; 1 mg/ml in drinking water, one week.
Text: as §1
Next, Applicant aimed to determine which isomer in the enantiomeric mixture of α-methyltryptophan elicited a weight-reducing effect. For this, Applicant used the Slc6a14-null male mice on a high-fat diet as a model of obesity. Applicant selected this mouse model of obesity for initial experiments because the weight-reducing effect of α-MT is independent of what the drug does to the transport function of Slc6a14.
Applicant administered the D- and L-isomers separately to these mice on a high-fat diet at a dose of 1 mg/ml in drinking water for one week. […]

Series [3] is described as follows: Circulating glucose and leptin in wild type male mice. The settings on record: WT male mice, ND or HFD (independent of diet); 4 weeks, 1 mg/ml in drinking water; 4-h fasting. It is filed as in vivo. As to the method: Animals were fasted for 4 h and blood was collected as described above. Blood samples were centrifuged at 1500×g for 20 min and the serum samples were collected and kept at −80° C. until analyzed. Leptin was measured using the mouse/rat Quantikine ELISA kit (MOB00B, R & D Systems, MN).
as §2
(§3) Applicant then performed glucose-tolerance test in control and α-MLT-treated (2-week treatment; 1 mg/ml in drinking water) mice which were fed the high-fat diet for 12 weeks. […] At the end of the experiment, mice were killed, and liver and abdominal fat pad were excised and weighed. Treatment with α-MLT reduced the weight of the liver and the abdominal fat (FIGS. 3C-D).

The nature of series [4]: Intraperitoneal glucose tolerance test in wild type mice on high-fat diet. To be noted: WT mice fed HFD 12 weeks; 2-week treatment, 1 mg/ml in drinking water. It is filed as in vivo. As to the method:
(§4) Intraperitoneal GTT was done in mice fasted for 4 h. Blood glucose was determined using the TRUE track blood glucose monitor (Trividia Health Inc, Fort Lauderdale, FL) at 0, 15, 30, 60, 90 and 120 min after i.p. injection of glucose (2 g/kg body weight).
as §3

Series [5] is described as follows: Liver and abdominal fat pad weight in wild type mice on high-fat diet. It is filed as in vivo. To be noted: WT male mice on HFD; 1 mg/ml in drinking water. As to the method: as §3
Series [6] in a line: Hepatic steatosis (Oil-red-O staining) in wild type mice on high-fat diet. It is filed as in vivo. The settings on record: WT mice on HFD 14 weeks; treatment during last two weeks. As to the method: Liver tissue was excised and weighed immediately, snap-frozen in liquid nitrogen, and stored at −80° C. For Oil-red-O (ORO) staining, tissues were OCT embedded, frozen at −20° C., and cut, followed by staining. Slides made from formalin-fixed, paraffin-embedded liver blocks were stained with hematoxylin and eosin (H & E).
Wild type mice developed fatty liver when fed a high-fat diet for 14 weeks as evident from Oil-red-O staining of the liver sections for neutral lipids (FIG. 3E). […] In this experiment, mice were fed the high-fat diet for 12-weeks, after which the mice were divided into two groups, one with no α-MLT exposure and the other with α-MLT administration. The drug treatment was continued for two additional weeks, and all through the experiment, both groups were continuously fed the same high-fat diet.

The nature of series [7]: Body weight and other parameters in wild type female mice. It is filed as in vivo. To be noted: 1 mg/ml in drinking water, 2 weeks. As to the method: The experiments described above were done with male mice. To see if α-MLT elicits a similar weight-loss effect in female mice, wild type female mice were exposed to α-MLT (1 mg/ml in drinking water) at 3 months of age. The untreated mice gained weight and α-MLT-exposed mice lost weight (FIG. 4A). At end of 2 weeks treatment, mice were killed and mammary fat pad and liver were excised and weighed. The weights of both tissues decreased in the treated mice (FIGS. 4B-C).

Series [8] in a line: Body weight, food intake, glucose and glucose tolerance in oblob mice on normal diet. It is filed as in vivo. As to the method:
as §4
oblob mice are deficient in leptin and therefore obese even on a normal diet. […] Applicant used 12-week-old male oblob mice to evaluate the weight-reducing effect of α-MLT (1 mg/ml in drinking water). There was a gradual weight gain on a normal diet in control mice without the drug (FIG. 5A). In contrast, mice exposed to α-MLT lost weight. At the end of 3-week drug exposure, the reversibility of α-MLT effect was evaluated by withdrawing the drug. […] At the end of the three-week treatment with α-MLT, mice were killed and the weights of the liver and abdominal fat pad were determined.
Applicant also monitored food intake, blood glucose, and glucose tolerance in control mice and α-MLT-treated mice.

The nature of series [9]: Serum metabolic panel (lipid profile, kidney and liver function) in wild type mice on high-fat diet. It is filed as in vivo. To be noted: WT mice on HFD, 1 mg/ml in drinking water, 4 weeks. As to the method:
At the end of the experiment, mice were fasted for 4 h, and blood was collected via orbital sinus using local anesthesia proparacaine. Serum was prepared by centrifugation of the clotted blood, and used for metabolic panel. This was done at our Laboratory Animal Resources Center.
Applicant evaluated the serum profile for metabolites and enzymes to assess the impact of α-MLT (4 weeks treatment; 1 mg/ml in drinking water) in normal mice which were on the high-fat diet for three months prior to initiation of the drug treatment. These tests were designed to assess the function of the kidneys and liver.

The conditions of series [10]: rats; orally 150 mg/kg per day; cited from earlier work.
Setting [11] is: oblob male mice on normal diet, 1 mg/ml in drinking water, three weeks.
Where [12] appears, read: oblob mice on normal diet, three-week treatment.

Entries after “also recorded” stand apart in the source; their conditions may differ.

Turning to `CC(N)(Cc1c[nH]c2ccccc12)C(=O)O` (racemic) [α-MT, α-methyl-DL-tryptophan], the body weight gain/loss result in [1] (wild type male mice on HFD, 2 mg/ml in drinking water, 1 week) was “lost weight”.

`C[C@@](N)(Cc1c[nH]c2ccccc12)C(=O)O` [α-MDT, α-methyl-D-tryptophan, reference compound]: the “weight-reducing effect (body weight)” value in series [2] is reported as “negligible effect”.

For the compound `C[C@](N)(Cc1c[nH]c2ccccc12)C(=O)O` [α-MLT, α-methyl-L-tryptophan], the “onset of weight-reducing effect” value in series [1] (1 mg/ml in drinking water) is “within a day”. Moreover, in series [1] (WT C57BL/6 male mice on normal diet or high-fat diet (both diets), 1 mg/ml in drinking water), the body weight result is reported as “decrease in body weight”. Moreover, the “reversibility of effect on body weight” value in [1] (upon withdrawal of the drug) was “reversible”. Also, the “weight-reducing effect (body weight)” value in [2] is reported as “active as a weight-reducing agent”. In series [3], the “circulating level of glucose” value is given as “significant decrease” and the “circulating level of leptin” value is on record as “significant decrease”. In series [4], the “glucose tolerance (i.p. GTT)” value is given as “better glucose tolerance”. Moreover, in series [5], the “weight of the abdominal fat” value is “reduced” and the “weight of the liver” value is “reduced”. The “hepatic steatosis (Oil-red-O neutral lipids)” value in series [6] is given as “almost completely prevented”. Further, in [7], the blood glucose level entry is recorded as “decreased”, the body weight entry was “lost weight”, the liver weight result is recorded as “decreased” and the “mammary fat pad weight” value is given as “decreased”. Moreover, in series [7], the serum leptin level result is on record as “decreased”. Besides, in series [8] (12-week-old male oblob mice on normal diet, 1 mg/ml in drinking water, 3 weeks), the body weight entry is recorded as “lost weight; also recorded: decreased”. Besides, the food intake result in series [8] (oblob male mice on normal diet, 1 mg/ml in drinking water) is given as “decreased food intake”. Also, in [8] (setting [11]), the blood glucose result is recorded as “lower” and the “insulin sensitivity (glucose tolerance test)” value was “improved insulin sensitivity”. In [8] (setting [12]), the abdominal fat result is reported as “significantly reduced” and the liver weight result is “significantly reduced”. For the same compound, in series [8] (oblob mice, drug withdrawn after 3-week exposure), the “reversibility of effect on body weight” value was “started gaining weight”. Besides, in series [9], the “kidney function (blood urea nitrogen, creatinine)” value is reported as “no evidence of compromise in kidney function” and the “liver function (bilirubin, AST)” value is reported as “no compromise in liver function”. For the same compound, in [9] (mean ± S.E.M, N=5), the AST is 79.5 ± 16.3 U/I, the Albumin was 1.90 ± 0.04 g/dL, the BUN came out at 34.2 ± 2.6 mg/dL and the Creatinine turned out to be 0.30 ± 0.04 mg/dL. For the same compound, in series [9] (mean ± S.E.M, N=5), the Globulin turned out to be 2.35 ± 0.09 g/dL, the Total bilirubin was 0.6 ± 0.1 mg/dL, the Total protein was 4.25 ± 0.06 g/dL and the “serum Cholesterol” value worked out at 106 ± 3 mg/dL. Moreover, in series [9] (mean ± S.E.M, N=5), the “serum Triglycerides” value was 97 ± 17 mg/dL. Moreover, in series [10], the adverse effects entry is reported as “no noticeable adverse effects”.
